Data: paper PMC5933457, “Probing biological activity through structural modelling of ligand-receptor interactions of 2,4-disubstituted thiazole retinoids” (Bioorganic & Medicinal Chemistry, 2018)
Where two headings read alike, the source gives them in different places.

Assays:
Type in all cases: biochemical
[1] = target: T1, RARβ ligand-binding domain (GST-RAR-β-LBD) (Homo sapiens, UniProt P10826); assay: LanthaScreen TR-FRET RARβ co-activator (receptor binding) assay; conditions: for EC50: estimated EC50, TR-FRET co-activator assay, 4 h incubation, read-out: EC50 (95% confidence range) RARβ; for binding-curve upper asymptote (coactivator recruitment), RARβ: in words, Fig. 6B
T1 construct: purchased Invitrogen
T1 sequence (P10826 183-417 limits assumed): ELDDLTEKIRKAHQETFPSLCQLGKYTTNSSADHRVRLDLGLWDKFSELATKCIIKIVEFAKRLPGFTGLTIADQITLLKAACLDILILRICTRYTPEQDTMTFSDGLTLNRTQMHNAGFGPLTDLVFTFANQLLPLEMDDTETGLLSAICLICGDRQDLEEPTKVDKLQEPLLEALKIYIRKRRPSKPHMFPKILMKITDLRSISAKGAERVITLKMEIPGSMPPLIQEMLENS
Procedure: (§1) These predictions were tested through a receptor-binding assay for each RAR isotype (Fig. 6), where the assay signal is dependent on two parameters: the binding affinity of ligand to the RAR LBD, and the affinity of the coactivator for the ligand-LBD complex. For this assay, binding curves and variation in level of the upper asymptote can reflect differences in co-activator affinity for the ligand-LBD complex; variation in affinity of ligand for LBD shifts the midpoint (EC50) of the binding curve, whereas changes in the level of the upper asymptote may result from changes in coactivator affinity for the ligand-LBD complex alone, or in combination with changes in affinity for ligand with LBD.[23]
(§2) The binding interaction of each retinoid with RARα, β and γ were determined in vitro by time-resolved fluorescence resonance energy transfer (TR-FRET) using the LanthaScreen TR-FRET RARα, RARβ, and RARγ co-activator assays according to the manufacturer’s (Invitrogen™) instructions.[23] This uses a terbium-labeled anti-GST antibody, a fluorescein-labeled co activator peptide, and RARα/β/γ ligand-binding domains (LBD) that are tagged with glutathione-S-transferase (GST) in a homogenous assay format. All experiments were performed in black, 384-well low-volume plates in the dark at RT with a 4 h incubation time. The final assay volume was 20 μL and all dilutions were carried out using TR-FRET assay buffer, with a final DMSO concentration of 1%. A mixture of either 3.5 nM GST-RAR-α-LBD or 2.5 nM GST-RAR-β-LBD or 3 nM GST-RAR-γ-LBD with 62.5 nM Tb-anti GST antibody and 30 μM fluorescein-labeled peptide and retinoid or DMSO control was added to each of the wells. Each ligand assay was performed in duplicate and measured using a PHERAstar FS Microplate Reader (BMG Labtech, Ortenberg, Germany) with instrument settings as described in the manufacturer’s instructions for LanthaScreen assays. The TR-FRET signal was expressed as the ratio of the signals at 520 nm and 490 nm. The data were fitted to a three-parameter ligand-binding curve using SigmaPlot (version 12.5, Systat Software Inc., San Jose CA) and normalized to the lower asymptote of each binding curve. […] Since the assay involves interactions between ligand and LBD, and ligand-dependent interactions between the LBD and fluorescein-labeled co activator, the binding assay data were interpreted by simulating these coupled chemical reactions using the biochemical simulator COPASI version 4.3.[23], [54]
(§3) The readout of the Lanthascreen TR-FRET binding assay is based on a Forster resonance energy transfer (FRET) signal generated from the interaction between a terbium-labelled anti-glutathione-S-transferase (GST) antibody and a fluorescein-labelled coactivator peptide. The RAR ligand-binding domain (LBD) is a GST fusion protein and interaction between the LBD and the fluorescein-labelled coactivator peptide is driven by the binding of ligand to the LBD, and detected by the FRET signal from the terbium/fluorescein interaction when the terbium-labelled anti-GST binds the LBD fusion protein. The output of the assay thus relies on two binding interactions: ligand with LBD, and ligand-bound LBD with the coactivator peptide. As both interactions may be affected by the fit of ligand to the binding pocket of the LBD, we used the biochemical pathway simulator COPASI^1 to build a simple model of how the FRET signal output in the assay will vary according to differential changes in the kinetics of the two binding interactions. Reactions were modelled deterministically using mass-action kinetics described by ordinary differential equations (ODE) within COPASI.^1 This model enables us to assess the effect of different rate constants and varying ligand concentration on the formation of the final ternary complex that is the read-out from the Lanthascreen TR-FRET assay.

[2] = target: T2, RARα ligand-binding domain (GST-RAR-α-LBD) (Homo sapiens, UniProt P10276); assay: LanthaScreen TR-FRET RARα co-activator (receptor binding) assay; conditions: for EC50: read-out: EC50 (95% confidence range) RARα; for binding-curve upper asymptote (coactivator recruitment), RARα: in words, Fig. 6A
T2 construct: purchased Invitrogen
T2 sequence (P10276 183-417 limits assumed): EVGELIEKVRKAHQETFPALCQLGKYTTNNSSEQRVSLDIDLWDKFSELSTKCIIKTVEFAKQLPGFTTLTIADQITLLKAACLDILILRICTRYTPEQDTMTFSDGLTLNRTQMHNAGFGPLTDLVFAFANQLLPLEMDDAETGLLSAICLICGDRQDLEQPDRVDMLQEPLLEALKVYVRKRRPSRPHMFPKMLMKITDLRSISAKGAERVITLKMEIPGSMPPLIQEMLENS
Procedure: as §1, §2, §3

[3] = target: T3, RARγ ligand-binding domain (GST-RAR-γ-LBD) (Homo sapiens, UniProt P13631); assay: LanthaScreen TR-FRET RARγ co-activator (receptor binding) assay; conditions: for EC50: estimated EC50, TR-FRET co-activator assay, 4 h incubation, read-out: EC50 (95% confidence range) RARγ; for binding-curve upper asymptote (coactivator recruitment), RARγ: in words, Fig. 6C
T3 construct: purchased Invitrogen
T3 sequence (P13631 185-419 limits assumed): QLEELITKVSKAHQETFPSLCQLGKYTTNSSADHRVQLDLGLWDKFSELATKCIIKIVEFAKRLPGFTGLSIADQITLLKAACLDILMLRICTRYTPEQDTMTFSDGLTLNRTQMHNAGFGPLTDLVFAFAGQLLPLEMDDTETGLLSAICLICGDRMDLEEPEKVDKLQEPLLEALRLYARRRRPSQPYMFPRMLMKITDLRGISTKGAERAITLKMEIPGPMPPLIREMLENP
Procedure: as §1, §2, §3

[4] = estimated EC50, TR-FRET co-activator assay, 4 h incubation

Compound	EC50 [1]	binding-curve upper asymptote (coactivator recruitment), RARβ [1]	EC50 [2, 4]	binding-curve upper asymptote (coactivator recruitment), RARα [2]	EC50 [3]	EC50 [2]	binding-curve upper asymptote (coactivator recruitment), RARγ [3]
CCOC(=O)c1ccc(-c2nc(-c3ccccc3)c(C)s2)cc1 [GZ22]	136 nM	high asymptote	82 nM	lower asymptotes	383 nM		
Cc1sc(-c2ccc(C(=O)O)cc2)nc1-c1ccc2c(c1)C(C)(C)CCC2(C)C [GZ25]	11 nM			high curve asymptotes	98.9 nM	8.2 nM	high
CCOCCOc1nc(-c2ccc(C(=O)O)cc2)sc1C [GZ18]	56.7 nM	very low asymptotes	15.1 nM	high curve asymptotes	141 nM		very low binding-curve upper asymptotes
